Assay results from patent publication US7728003B2, “5-oxo-5,8-dihydro-pyrido-pyrimidines as inhibitors of c-fms kinase” (Janssen Pharmaceutica N.V., priority 2005, dated 2010).

Target: c-fms (Homo sapiens, UniProt P07333)
Experiment: c-fms autophosphorylation, fluorescence polarization competition immunoassay
Type: biochemical
Settings: 10 nM c-fms, 1 mM ATP; for inhibition at 0.1 µM: test concentration 0.1 μM, read-out: c-fms Autophosphorylation Percent Inhibition, % @ 0.1 μM; for inhibition at 1 µM: test concentration 1 μM, read-out: c-fms Autophosphorylation Percent Inhibition, % @ 1 μM
Description: The assay buffer used was 100 mM 4-(2-hydroxyethyl)piperazine 1-ethanesulfonic acid (HEPES), pH 7.5, 1 mM 1,4-dithio-DL-threitol (DTT), 0.01% (v/v) Tween-20. Compounds were diluted in assay buffer containing 4% dimethylsulfoxide (DMSO) just prior to the assay. To each well, 5 μL of compound were added followed by the addition of 3 μL of a mix containing 33 nM c-fms and 16.7 mM MgCl2 (Sigma) in assay buffer. The kinase reaction was initiated by adding 2 μL of 5 mM ATP (Sigma) in assay buffer. The final concentrations in the assay were 10 nM c-fms, 1 mM ATP, 5 mM MgCl2, 2% DMSO. Control reactions were ran in each plate: in positive and negative control wells, assay buffer (made 4% in DMSO) was substituted for the compound; in addition, positive control wells received 1.2 μL of 50 mM ethylenediaminetetraaceticacid (EDTA).
The plates were incubated at room temperature for 45 min. At the end of the incubation, the reaction was quenched with 1.2 μL of 50 mM EDTA (EDTA was not added to the positive control wells at this point; see above). Following a 5-min incubation, each well received 10 μL of a 1:1:3 mixture of anti-phosphotyrosine antibody, 10X, PTK green tracer, 10X (vortexed), FP dilution buffer, respectively (all from PanVera, cat. # P2837). The plate was covered, incubated for 30 min at room temperature and the fluorescence polarization was read on the Analyst. The instrument settings were: 485 nm excitation filter; 530 nm emission filter; Z height: middle of well; G factor: 0.93.
The percent inhibition is shown in Table 1 at the indicated test concentration. The IC50 shown in Table 2 are averages of three independent measurements.

Sequence of c-fms (P07333 20-972): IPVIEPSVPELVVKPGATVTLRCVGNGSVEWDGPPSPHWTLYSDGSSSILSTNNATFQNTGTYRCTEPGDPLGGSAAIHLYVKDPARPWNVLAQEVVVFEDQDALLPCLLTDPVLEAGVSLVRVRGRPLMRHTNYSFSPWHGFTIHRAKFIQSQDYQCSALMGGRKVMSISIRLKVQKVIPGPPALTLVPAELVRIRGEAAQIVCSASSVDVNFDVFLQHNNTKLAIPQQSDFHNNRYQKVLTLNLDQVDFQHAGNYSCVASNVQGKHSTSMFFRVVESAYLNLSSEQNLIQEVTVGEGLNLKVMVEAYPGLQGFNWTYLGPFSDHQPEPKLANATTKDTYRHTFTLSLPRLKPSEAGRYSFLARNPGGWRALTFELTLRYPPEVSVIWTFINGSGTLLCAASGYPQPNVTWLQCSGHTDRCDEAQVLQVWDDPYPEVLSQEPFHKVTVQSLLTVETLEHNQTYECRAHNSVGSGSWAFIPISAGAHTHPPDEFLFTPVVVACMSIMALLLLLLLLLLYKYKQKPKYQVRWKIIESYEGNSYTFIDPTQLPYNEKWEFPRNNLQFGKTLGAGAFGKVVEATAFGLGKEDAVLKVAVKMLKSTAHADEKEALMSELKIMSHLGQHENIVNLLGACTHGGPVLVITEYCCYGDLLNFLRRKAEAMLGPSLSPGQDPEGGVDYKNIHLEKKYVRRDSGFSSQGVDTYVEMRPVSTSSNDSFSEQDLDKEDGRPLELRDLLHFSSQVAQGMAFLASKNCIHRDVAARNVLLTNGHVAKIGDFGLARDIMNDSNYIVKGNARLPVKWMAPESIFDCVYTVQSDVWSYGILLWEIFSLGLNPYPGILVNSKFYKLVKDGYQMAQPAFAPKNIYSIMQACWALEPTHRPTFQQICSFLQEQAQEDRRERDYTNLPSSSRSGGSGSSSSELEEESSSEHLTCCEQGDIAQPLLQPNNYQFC

| Structure (SMILES) | inhibition at 0.1 µM [%] | inhibition at 1 µM [%] | IC50 (average of three independent measurements) [nM] |
| --- | --- | --- | --- |
| CONC(=O)c1cn(-c2ccc3c(c2)CCC3)c2nc(NCCCN3CCCC3=O)ncc2c1=O [Cpd 22, 8-Indan-5-yl-5-oxo-2-[3-(2-oxo-pyrrolidin-1-yl)-propylamino]-5,8-dihydro-pyrido[2,3-d]pyrimidine-6-carboxylic acid methoxy-amide] | 40 | 72 | – |
| CNC(=O)c1cn(-c2ccc3c(c2)CCC3)c2nc(NCCCN3CCCC3=O)ncc2c1=O [Cpd 14, 8-Indan-5-yl-5-oxo-2-[3-(2-oxo-pyrrolidin-1-yl)-propylamino]-5,8-dihydro-pyrido[2,3-d]pyrimidine-6-carboxylic acid methylamide] | 5 | 24 | – |
| NC(=O)c1cn(-c2ccc3c(c2)CCC3)c2nc(NCCCN3CCOCC3)ncc2c1=O [Cpd 5] | – | – | 2600 |
| COCCNc1ncc2c(=O)c(C(=O)NOC)cn(-c3ccc4c(c3)CCC4)c2n1 [Cpd 23, 8-Indan-5-yl-2-(2-methoxy-ethylamino)-5-oxo-5,8-dihydro-pyrido[2,3-d]pyrimidine-6-carboxylic acid methoxy-amide] | 51 | 65 | – |
| CNC(=O)c1cn(-c2ccc3c(c2)CCC3)c2nc(NCCN3CCOCC3)ncc2c1=O [Cpd 18, 8-Indan-5-yl-2-(2-morpholin-4-yl-ethylamino)-5-oxo-5,8-dihydro-pyrido[2,3-d]pyrimidine-6-carboxylic acid methylamide] | 12 | 35 | – |
| CONC(=O)c1cn(-c2ccc3c(c2)CCC3)c2nc(NCCCN(C)C)ncc2c1=O [Cpd 20, 2-(3-Dimethylamino-propylamino)-8-indan-5-yl-5-oxo-5,8-dihydro-pyrido[2,3-d]pyrimidine-6-carboxylic acid methoxy-amide] | 20 | 52 | – |
| CNC(=O)c1cn(-c2ccc3c(c2)CCC3)c2nc(NCCCN3CCN(C)CC3)ncc2c1=O [Cpd 15, 8-Indan-5-yl-2-[3-(4-methyl-piperazin-1-yl)-propylamino]-5-oxo-5,8-dihydro-pyrido[2,3-d]pyrimidine-6-carboxylic acid methylamide] | 8 | 29 | – |
| CNC(=O)c1cn(-c2ccc3c(c2)CCC3)c2nc(NCCc3ccc(OC)cc3)ncc2c1=O [Cpd 17, 8-Indan-5-yl-2-[2-(4-methoxy-phenyl)-ethylamino]-5-oxo-5,8-dihydro-pyrido[2,3-d]pyrimidine-6-carboxylic acid methylamide] | 15 | 36 | – |
| CNC(=O)c1cn(-c2ccc3c(c2)CCC3)c2nc(NCCCN3CCOCC3)ncc2c1=O [Cpd 13, 8-Indan-5-yl-2-(3-morpholin-4-yl-propylamino)-5-oxo-5,8-dihydro-pyrido[2,3-d]pyrimidine-6-carboxylic acid methylamide] | 7 | 27 | – |
| CNC(=O)c1cn(-c2ccc3c(c2)CCC3)c2nc(NCCCN(C)C)ncc2c1=O [Cpd 12, 2-(3-Dimethylamino-propylamino)-8-indan-5-yl-5-oxo-5,8-dihydro-pyrido[2,3-d]pyrimidine-6-carboxylic acid methylamide] | 2 | 13 | – |
| COc1cc(CNc2ncc3c(=O)c(C(N)=O)cn(-c4ccc5c(c4)CCC5)c3n2)cc(OC)c1 [Cpd 11, 2-(3,5-Dimethoxy-benzylamino)-8-indan-5-yl-5-oxo-5,8-dihydro-pyrido[2,3-d]pyrimidine-6-carboxylic acid amide] | 0 | 50 | – |

Other lines, results leading:

| inhibition at 0.1 µM [%] | inhibition at 1 µM [%] | IC50 (average of three independent measurements) [nM] | Structure (SMILES) |
| --- | --- | --- | --- |
| 17 | 40 | – | CONC(=O)c1cn(C2CCCCC2)c2nc(NCCCN(C)C)ncc2c1=O [Cpd 42, 8-Cyclohexyl-2-(3-dimethylamino-propylamino)-5-oxo-5,8-dihydro-pyrido[2,3-d]pyrimidine-6-carboxylic acid methoxy-amide] |
| 22 | 65 | – | CN(C)CCCNc1ncc2c(=O)c(C(N)=O)cn(C3CCCCC3)c2n1 [Cpd 29, 8-Cyclohexyl-2-(3-dimethylamino-propylamino)-5-oxo-5,8-dihydro-pyrido[2,3-d]pyrimidine-6-carboxylic acid amide] |
| 32 | 60 | – | CONC(=O)c1cn(C2CCCCC2)c2nc(NCCCN3CCOCC3)ncc2c1=O [Cpd 43, 8-Cyclohexyl-2-(3-morpholin-4-yl-propylamino)-5-oxo-5,8-dihydro-pyrido[2,3-d]pyrimidine-6-carboxylic acid methoxy-amide] |
| 28 | 51 | – | CONC(=O)c1cn(C2CCCCC2)c2nc(NCCCN3CCCC3)ncc2c1=O [Cpd 46, 8-Cyclohexyl-5-oxo-2-(3-pyrrolidin-1-yl-propylamino)-5,8-dihydro-pyrido[2,3-d]pyrimidine-6-carboxylic acid methoxy-amide] |
| 6 | 26 | – | CNC(=O)c1cn(C2CCCCC2)c2nc(NCCCN(C)C)ncc2c1=O [Cpd 54, 8-Cyclohexyl-2-(3-dimethylamino-propylamino)-5-oxo-5,8-dihydro-pyrido[2,3-d]pyrimidine-6-carboxylic acid methylamide] |
| 29 | 67 | – | COCCNc1ncc2c(=O)c(C(N)=O)cn(C3CCCCC3)c2n1 [Cpd 35, 8-Cyclohexyl-2-(2-methoxy-ethylamino)-5-oxo-5,8-dihydro-pyrido[2,3-d]pyrimidine-6-carboxylic acid amide] |
| 19 | 56 | – | NC(=O)c1cn(C2CCCCC2)c2nc(NCCN3CCCCC3)ncc2c1=O [Cpd 38, 8-Cyclohexyl-5-oxo-2-(2-piperidin-1-yl-ethylamino)-5,8-dihydro-pyrido[2,3-d]pyrimidine-6-carboxylic acid amide] |
| 3 | 20 | – | CONC(=O)c1cn(C2CCCCC2)c2nc(NCCN3CCCCC3)ncc2c1=O [Cpd 50, 8-Cyclohexyl-5-oxo-2-(2-piperidin-1-yl-ethylamino)-5,8-dihydro-pyrido[2,3-d]pyrimidine-6-carboxylic acid methoxy-amide] |
| 25 | 54 | – | CONC(=O)c1cn(-c2ccc3c(c2)CCC3)c2nc(NCCN3CCOCC3)ncc2c1=O [Cpd 26, 8-Indan-5-yl-2-(2-morpholin-4-yl-ethylamino)-5-oxo-5,8-dihydro-pyrido[2,3-d]pyrimidine-6-carboxylic acid methoxy-amide] |
| 3 | 21 | – | CNC(=O)c1cn(C2CCCCC2)c2nc(NCc3cc(OC)cc(OC)c3)ncc2c1=O [Cpd 61, 8-Cyclohexyl-2-(3,5-dimethoxy-benzylamino)-5-oxo-5,8-dihydro-pyrido[2,3-d]pyrimidine-6-carboxylic acid methylamide] |
| 17 | 52 | – | NC(=O)c1cn(C2CCCCC2)c2nc(NCCCN3CCCC3=O)ncc2c1=O [Cpd 32, 8-Cyclohexyl-5-oxo-2-[3-(2-oxo-pyrrolidin-1-yl)-propylamino]-5,8-dihydro-pyrido[2,3-d]pyrimidine-6-carboxylic acid amide] |
